Target: Substance-P receptor (Homo sapiens, UniProt P25103)
Assay: Displacement of [125I]-substance P from hNK1 receptor in chinese hamster ovarian (CHO) cells
Type: cell-based

Chain of Substance-P receptor (P25103 whole entry): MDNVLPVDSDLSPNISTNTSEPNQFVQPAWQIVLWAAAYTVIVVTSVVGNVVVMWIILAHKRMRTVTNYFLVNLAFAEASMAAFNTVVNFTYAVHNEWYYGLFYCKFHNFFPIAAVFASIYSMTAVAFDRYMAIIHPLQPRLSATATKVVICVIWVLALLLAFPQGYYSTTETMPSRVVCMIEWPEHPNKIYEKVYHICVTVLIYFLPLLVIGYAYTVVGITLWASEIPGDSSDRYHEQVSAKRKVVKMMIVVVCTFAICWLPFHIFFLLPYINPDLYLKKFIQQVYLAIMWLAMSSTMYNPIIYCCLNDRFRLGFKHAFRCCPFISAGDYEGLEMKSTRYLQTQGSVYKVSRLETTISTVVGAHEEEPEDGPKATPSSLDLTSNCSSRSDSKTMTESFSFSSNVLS

Row | SMILES | IC50 [µM]
1 | CS(=O)(=O)Nc1ccccc1N1CCN(C(=O)[C@H](COCc2ccc(Cl)c(Cl)c2)NCc2ccccc2)CC1 | 0.0048
2 | O=C([C@H](COCc1ccc(Cl)c(Cl)c1)NCc1ccccc1)N1CCC2(CCc3ccccc32)CC1 | 0.602
3 | CN(c1ccccc1C1CCN(C(=O)[C@H](COCc2ccc(Cl)c(Cl)c2)NCc2ccccc2)CC1)S(C)(=O)=O | 0.061
4 | COc1ccccc1C1CCN(C(=O)[C@H](COCc2ccc(Cl)c(Cl)c2)NCc2ccccc2)CC1 | 0.263
5 | CS(=O)(=O)NCC1(c2ccccc2)CCN(C(=O)[C@H](COCc2ccc(Cl)c(Cl)c2)NCc2ccccc2)CC1 | 0.382

Continued by falling IC50, values first:

Row | IC50 [µM] | SMILES
6 | 2.5 | CS(=O)(=O)N1CCC2(CCN(C(=O)[C@H](COCc3ccc(Cl)c(Cl)c3)NCc3ccccc3)CC2)C1
7 | 0.558 | Cc1ccccc1N1CCN(C(=O)[C@H](COCc2ccc(Cl)c(Cl)c2)NCc2ccccc2)CC1
8 | 0.547 | CS(=O)(=O)N(CC1CCN(C(=O)[C@H](COCc2ccc(Cl)c(Cl)c2)NCc2ccccc2)CC1)c1ccccc1
9 | 0.33 | Cc1ccccc1C1CCN(C(=O)[C@H](COCc2ccc(Cl)c(Cl)c2)NCc2ccccc2)CC1
10 | 0.017 | CS(=O)(=O)Nc1ccccc1C1CCN(C(=O)[C@H](COCc2ccc(Cl)c(Cl)c2)NCc2ccccc2)CC1
11 | 0.013 | COc1ccccc1N1CCN(C(=O)[C@H](COCc2ccc(Cl)c(Cl)c2)NCc2ccccc2)CC1
12 | 0.001 | CS(=O)(=O)N1CC2(CCN(C(=O)[C@H](COCc3ccc(Cl)c(Cl)c3)NCc3ccccc3)CC2)c2ccccc21

From ChEMBL document CHEMBL1130887, “Serine derived NK1 antagonists. 2: A pharmacophore model for arylsulfonamide binding” (Bioorg Med Chem Lett, 1998)
